Measured values published in patent publication US4432973A, “Benzoyl- and α-hydroxybenzyl-phenyl-glycosides and application thereof in therapeutics” (Societe de Recherches Industrielles (S.O.R.I.), priority 1980, dated 1984).

Legend:
[1] = Veinous thrombosis: veinous anti-thrombus activity; assay type: in vivo; conditions: Rattus norvegicus, ip, 50 mg/kg IP, 4 to 5 hours after administration, read-out: Diminution of veinous thrombus
[2] = Acute toxicity in the mouse by the I.P. route; assay type: in vivo; conditions: in vivo, ip
Source text: The acute toxicity was studied in the mouse by the I.P. route. It is expressed in the form of DL-50 (lethal dose involving the death of half of the animals) or DL-0 (maximum non-lethal dose).

[3] = test system: blood platelet aggregation; experiment: Spontaneous aggregation: blood platelet anti-aggregation activity; assay type: in vivo, rat (adult male); conditions: Platelet, ip; 100 mg/kg I.P., t=5 hours, rat
Procedure: The technique used is that of Sanders described in Laboratory Animal Science 27 (No. 5), pages 757-761 (1977).
After administration at 100 mg/kg I.P. (unless specified to the contrary in Table V hereinbelow) of the product to be tested to adult male reproducing rats, two blood samples are taken, one on sodium citrate and the other on sodium citrate treated with formaldehyde at instant t=5 hours.
After centrifugation of the samples, a platelet count is made on the supernatant liquid. The spontaneous aggregation index according to Wu and Hook Stroke 6, 521-524 (1975) is expressed by the relation: [formula]

[4] = Anti-hypoxic activity: survival to hypoxia (nitrogen-oxygen 95:5); assay type: in vivo, mouse (Swiss male); conditions: I.P., 1/10th of LD-50 or 100 mg/kg when LD-0 ≥ 800 mg/kg; up to 15 minutes; mouse
Method in brief: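 Groups of 20 male Swiss mice (20–30 g) received compound i.p. at 1/10 LD-50, or 100 mg/kg when LD-0 ≥800 mg/kg, then were placed in nitrogen-oxygen 95:5 v/v. Survival time was recorded up to 15 min and expressed as % survival versus untreated controls; Duxil reference given at 18 mg/kg i.p.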

[5] = Anti-ulcer activity: ulcer caused by aspirin; assay type: in vivo, rat (male Wistar); conditions: 100 mg/kg I.P.; aspirin 192 mg/kg per os; standardised to control batch and cimetidine (index 1)
Method in brief: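 Male Wistar rats weighing 180 to 200 g were fasted from t=0, when they received a first dose of the test product. At t=18 hours they were given 2 ml of an ulcer-forming suspension of aspirin at 192 mg/kg per os, followed by a second dose of the product. At t=22 hours the animals were sacrificed and their ulcers graded: 1 for small point-like, 3 for more extensive, 9 for highly extensive or very deep. Scores were standardised against a control batch and against cimetidine, the reference, assigned index 1.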

[6] = Veinous thrombosis: veinous anti-thrombus activity; assay type: in vivo; conditions: Rattus norvegicus, ip, 100 mg/kg I.P., 4 to 5 hours after administration, read-out: Diminution of veinous thrombus
Procedure: The technique used is similar to the one described by Peterson-Zucker in Thrombo.Diath.Haemorh. 23, 1, (1970).
An occlusive thrombus is created in the […] vena cava of a rat by the combined action of an endothelial alteration and a veinous stasis for 15 mins. and 4 to 5 hours after administration of the product to be tested (100 mg/kg I.P.).

| Structure (SMILES) | inhibition in vivo at 50 mg/kg [1] | LD50 ([2]; I.P., read-out: DL-50 (lethal dose involving the death of half of the animals)) | inhibition in vivo at 100 mg/kg [3] | Survival (survival percentage to hypoxic aggression) [4] | Ulcer index [5] | DL-0 (maximum non-lethal dose) [2] | inhibition in vivo at 100 mg/kg [6] |
| --- | --- | --- | --- | --- | --- | --- | --- |
| Cc1ccc(C(O)c2cccc(O[C@@H]3OC[C@@H](O)[C@H](O)[C@H]3O)c2)cc1 (single isomer, unassigned) [Example 106] | ≥ 50% | 500 mg/kg | – | – | – | – | – |
| Cc1cc(C(=O)c2ccccc2Cl)cc(C)c1O[C@@H]1OC[C@@H](O)[C@H](O)[C@H]1O [Example 102] | – | – | ≥ 40% | +++ (higher than or equal to 80%) | 0.49 | > 800 mg/kg IP | 30 to 49% |
